ChEMBL document CHEMBL3045207, “1-Phenyl-3-toluyl-4-[ortho-1'-(N-ethyl-2'-methylpropylamine)]phenylpyrazole, synthesis and evaluation of the in vitro antifungal activity against Botrytis cinerea and Fusarium oxysporum” (Farmaco, 2004)
Values after ≈ are worked out from the molar mass of the structure shown. Active and inactive are the calls of the source. The rule behind the calls is not given here.

Experiments:
Botrytis cinerea [1] = assay: Inhibition of mycelial growth of Botryotinia fuckeliana after […]; format: functional, organism-based
Fusarium oxysporum [2] = assay: Inhibition of conidial germination of Fusarium oxysporum after 8 days by microscopy; format: functional, organism-based; conditions: 192 h
Fusarium oxysporum [3] = assay: Inhibition of mycelial growth of Fusarium oxysporum after […]; format: functional, organism-based
Fusarium oxysporum [4] = assay: Inhibition of conidial germination of Fusarium oxysporum at 100 ug/ml after 8 days by microscopy; format: functional, organism-based
Botrytis cinerea [5] = assay: Inhibition of conidial germination of Botryotinia fuckeliana at 10 ug/ml after 48 hr by microscopy; format: functional
Fusarium oxysporum [6] = assay: Inhibition of conidial germination of Fusarium oxysporum at 10 ug/ml after 48 hr by microscopy; format: functional
Botrytis cinerea [7] = assay: Antifungal activity against Botryotinia fuckeliana assessed as growth inhibition at 1 mg/ml after 72 hr by paper disk diffusion method; format: functional; conditions: read-out: DIZ
Botrytis cinerea [8] = assay: Inhibition of conidial germination of Botryotinia fuckeliana at 50 ug/ml after 8 days by microscopy; format: functional, organism-based
Botrytis cinerea [9] = assay: Inhibition of conidial germination of Botryotinia fuckeliana after 8 days by microscopy; format: functional, organism-based; conditions: 192 h
Botrytis cinerea [10] = assay: Antifungal activity against Botryotinia fuckeliana after 72 hr by 96-well microbioassay; format: functional
Fusarium oxysporum [11] = assay: Antifungal activity against Fusarium oxysporum assessed as growth inhibition at 1 mg/ml after 72 hr by paper disk diffusion method; format: functional; conditions: read-out: DIZ
Fusarium oxysporum [12] = assay: Antifungal activity against Fusarium oxysporum after 72 hr by 96-well microbioassay; format: functional

Row | IC50 (Fusarium oxysporum [2]) [µg/mL] | IC50 (Botrytis cinerea [9]) [µg/mL] | MIC (Botrytis cinerea [10]) [µg/mL] | MIC (Fusarium oxysporum [12]) [µg/mL] | SMILES | IC50 (Botrytis cinerea [1]) [µg/mL] | IC50 (Fusarium oxysporum [3]) [µg/mL] | inhibition (Fusarium oxysporum [4]) | inhibition at 10 µg/mL (Botrytis cinerea [5]) [%] | inhibition at 10 µg/mL (Fusarium oxysporum [6]) [%] | zone of inhibition at 1000 µg/mL (Botrytis cinerea [7]) [mm] | inhibition (Botrytis cinerea [8]) | zone of inhibition at 1000 µg/mL (Fusarium oxysporum [11]) [mm]
1 | 40.8 (≈ 99.6 µM) | 7.3 (≈ 17.8 µM) | 25 (≈ 61 µM) | 36 (≈ 87.9 µM) | CCNC(c1ccccc1-c1cn(-c2ccccc2)nc1-c1ccc(C)cc1)C(C)C (stereo unspecified) | 6.8 (≈ 16.6 µM) | 17.8 (≈ 43.4 µM) | Active | 85 | 20 | 26 | Active | 23.6
2 |  |  | 12 (≈ 13 µM) | 15 (≈ 16.2 µM) | C[C@@H]1[C@H](O)[C@@H](C)/C=C/C=C/C=C/C=C/C=C/C=C/C=C/[C@H](O[C@@H]2O[C@H](C)[C@@H](O)[C@H](N)[C@@H]2O)C[C@@H]2O[C@](O)(C[C@@H](O)C[C@@H](O)[C@H](O)CC[C@@H](O)C[C@@H](O)CC(=O)O[C@H]1C)C[C@H](O)[C@H]2C(=O)O [AMPHOTERICIN B] |  |  |  |  |  | 30 |  | 26
